Test results: article PMC12362783 (Advanced Science, 2025)

What was measured:
MDA‐MB‐231 = test: Cell growth inhibition, CellTiter‐Glo (CTG); type: cell-based; conditions: Homo sapiens, MDA-MB-231, 120 h, read-out: IC50 MDA‐MB‐231; CTG, 5 days, n = 3
Procedure: (§1) All cells were grown in a humidified incubator at 37 °C and 5% CO2.
(§2) […] […] Relative viability was calculated by normalizing the raw luminescence counts of the treated groups to those of the DMSO control groups. IC₅₀ values were calculated using sigmoidal dose‐response curve fitting with GraphPad Prism 9.0 software.

MDA‐MB‐468 = test: Cell growth inhibition, CellTiter‐Glo (CTG); type: cell-based; conditions: Homo sapiens, MDA-MB-468, 120 h; CTG, 5 days, n = 3
Procedure: as §1, §2

MDA‐MB‐436 = test: Cell growth inhibition, CellTiter‐Glo (CTG); type: cell-based; conditions: CTG, 5 days, n = 3
Procedure: as §1
(§3) Growth viability was determined by the CellTiter‐Glo luminescent viability assay (Promega) 5 days after drug treatment. Cell viability was measured immediately after dosing (Day 0) and after 5 days of incubation using CellTiter‐Glo (CTG, Promega, G7573). Relative viability was calculated by normalizing the raw luminescence counts of the treated groups to those of the DMSO control groups. IC₅₀ values were calculated using sigmoidal dose‐response curve fitting with GraphPad Prism 9.0 software.

MCF‐7 = test: Cell growth inhibition, CellTiter‐Glo (CTG); type: cell-based; conditions: Homo sapiens, MCF7; n = 3
Procedure: as §3

MDA‐MB‐453 = test: Cell growth inhibition, CellTiter‐Glo (CTG); type: cell-based; conditions: Homo sapiens, MDA-MB-453, read-out: IC50 MAD‐MB‐453
Procedure: as §3

MCF‐10A = test: Cell growth inhibition, normal breast cell line; type: cell-based; conditions: Homo sapiens, MCF-10A; @30 µM; read-out: MCF‐10A inhibitory rate at certain concentration
Procedure: as §3

MDA‐MB‐231 cells [1] = test: Cell cycle assay, flow cytometry (PI); type: cell-based; conditions: MDA‐MB‐231, 48 h; A7, B8 0.5 and 1.0 µM, controls 1.0 µM
Procedure: (§4) The cell cycle analysis was performed with cells seeded in 6‐well plates in growth media. The cells were allowed to attach overnight (8 h). The cultures were treated with different tested drugs for 48 h. After treatment, cells were collected and fixed with 70% pre‐cold ethanol in PBS and stored at −20 °C overnight. Then washed the cells with PBS twice, and incubated with 100 µg mL^−1 RNase A at 37 °C for 1 h, stained with propidium iodide for 30 min avoid light at room temperature. The stained cells were analyzed by flow cytometry. The percentages of cells in the G1, S, and G2/M phases were determined. The data were analyzed by FlowJo software (Tree Star, Inc., Ashland, OR).

MDA‐MB‐468 cells [2] = test: Cell cycle assay, flow cytometry (PI); type: cell-based; conditions: MDA‐MB‐468, 48 h; A7, B8 0.5 and 1.0 µM, controls 1.0 µM
Procedure: as §4

ATR = biological target: T1, ATR (Homo sapiens, UniProt Q13535); test: ATR kinase inhibition, Mobility Shift Assay; type: biochemical; conditions: n = 3, mean ± SD
T1 construct: purchased Eurofins 14-953
T1 sequence (Q13535 whole entry): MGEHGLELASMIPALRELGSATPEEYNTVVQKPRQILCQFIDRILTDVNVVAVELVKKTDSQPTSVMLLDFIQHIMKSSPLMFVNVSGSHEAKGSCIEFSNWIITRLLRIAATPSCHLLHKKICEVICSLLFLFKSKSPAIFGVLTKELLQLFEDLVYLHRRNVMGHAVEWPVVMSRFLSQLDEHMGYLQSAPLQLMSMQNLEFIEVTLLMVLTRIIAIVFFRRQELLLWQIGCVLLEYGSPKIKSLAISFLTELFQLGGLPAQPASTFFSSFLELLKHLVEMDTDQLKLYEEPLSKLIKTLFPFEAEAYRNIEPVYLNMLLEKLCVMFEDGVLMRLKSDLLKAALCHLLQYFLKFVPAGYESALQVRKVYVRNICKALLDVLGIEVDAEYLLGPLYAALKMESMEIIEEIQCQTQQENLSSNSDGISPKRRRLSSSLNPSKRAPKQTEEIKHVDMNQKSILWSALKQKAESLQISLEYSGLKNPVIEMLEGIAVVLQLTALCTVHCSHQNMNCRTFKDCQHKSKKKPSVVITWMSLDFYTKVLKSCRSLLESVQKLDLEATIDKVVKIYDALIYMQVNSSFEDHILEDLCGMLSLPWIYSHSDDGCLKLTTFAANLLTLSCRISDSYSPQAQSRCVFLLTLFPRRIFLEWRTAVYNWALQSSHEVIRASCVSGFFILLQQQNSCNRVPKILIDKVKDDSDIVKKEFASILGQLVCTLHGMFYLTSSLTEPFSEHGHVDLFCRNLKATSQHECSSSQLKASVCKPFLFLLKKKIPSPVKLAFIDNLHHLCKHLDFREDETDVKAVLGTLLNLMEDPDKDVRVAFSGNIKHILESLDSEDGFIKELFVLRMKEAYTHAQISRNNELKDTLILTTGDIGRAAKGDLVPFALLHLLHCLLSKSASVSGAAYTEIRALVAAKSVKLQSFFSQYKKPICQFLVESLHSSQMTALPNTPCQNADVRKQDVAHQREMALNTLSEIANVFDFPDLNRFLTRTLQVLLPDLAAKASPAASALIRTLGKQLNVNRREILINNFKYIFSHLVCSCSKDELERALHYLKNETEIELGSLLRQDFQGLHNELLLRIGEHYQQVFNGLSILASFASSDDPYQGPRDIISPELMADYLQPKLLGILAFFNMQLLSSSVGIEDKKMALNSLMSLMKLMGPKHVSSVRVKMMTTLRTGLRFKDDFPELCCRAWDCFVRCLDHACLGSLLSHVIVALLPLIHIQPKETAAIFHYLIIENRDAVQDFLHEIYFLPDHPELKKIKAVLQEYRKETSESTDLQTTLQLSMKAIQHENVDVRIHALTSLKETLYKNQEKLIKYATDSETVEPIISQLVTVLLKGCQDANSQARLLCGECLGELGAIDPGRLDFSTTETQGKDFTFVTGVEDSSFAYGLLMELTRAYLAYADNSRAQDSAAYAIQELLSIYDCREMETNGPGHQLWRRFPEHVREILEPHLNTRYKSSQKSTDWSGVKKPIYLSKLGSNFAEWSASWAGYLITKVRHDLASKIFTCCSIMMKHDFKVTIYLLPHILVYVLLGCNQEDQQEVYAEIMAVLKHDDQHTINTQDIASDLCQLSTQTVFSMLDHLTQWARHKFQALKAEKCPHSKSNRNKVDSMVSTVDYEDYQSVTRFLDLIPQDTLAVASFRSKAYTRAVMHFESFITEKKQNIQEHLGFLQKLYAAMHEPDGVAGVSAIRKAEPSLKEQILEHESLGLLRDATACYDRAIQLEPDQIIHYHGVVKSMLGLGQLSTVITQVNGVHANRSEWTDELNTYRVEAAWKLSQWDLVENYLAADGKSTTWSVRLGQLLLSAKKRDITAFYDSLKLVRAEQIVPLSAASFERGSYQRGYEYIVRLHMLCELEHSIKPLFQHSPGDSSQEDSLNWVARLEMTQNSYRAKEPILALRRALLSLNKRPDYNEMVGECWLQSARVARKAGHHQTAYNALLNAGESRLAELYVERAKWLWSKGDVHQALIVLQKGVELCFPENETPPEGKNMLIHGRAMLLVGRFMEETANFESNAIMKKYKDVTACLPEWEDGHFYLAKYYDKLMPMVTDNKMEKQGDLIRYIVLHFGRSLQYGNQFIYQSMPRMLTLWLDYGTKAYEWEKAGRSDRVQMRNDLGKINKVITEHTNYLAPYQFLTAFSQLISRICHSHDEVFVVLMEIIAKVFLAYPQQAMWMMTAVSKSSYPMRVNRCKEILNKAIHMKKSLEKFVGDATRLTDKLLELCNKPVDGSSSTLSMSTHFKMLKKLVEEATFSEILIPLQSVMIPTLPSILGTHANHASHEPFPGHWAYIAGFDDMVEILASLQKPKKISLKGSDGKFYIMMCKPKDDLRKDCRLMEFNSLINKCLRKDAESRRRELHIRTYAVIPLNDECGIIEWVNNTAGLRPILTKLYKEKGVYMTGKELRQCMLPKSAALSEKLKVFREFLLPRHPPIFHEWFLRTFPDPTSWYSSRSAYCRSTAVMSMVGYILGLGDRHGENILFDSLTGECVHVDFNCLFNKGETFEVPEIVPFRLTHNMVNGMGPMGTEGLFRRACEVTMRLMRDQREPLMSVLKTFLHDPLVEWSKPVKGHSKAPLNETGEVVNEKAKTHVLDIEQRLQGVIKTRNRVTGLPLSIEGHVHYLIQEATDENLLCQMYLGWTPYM
T1 sequence (Q8WXE1 whole entry partner): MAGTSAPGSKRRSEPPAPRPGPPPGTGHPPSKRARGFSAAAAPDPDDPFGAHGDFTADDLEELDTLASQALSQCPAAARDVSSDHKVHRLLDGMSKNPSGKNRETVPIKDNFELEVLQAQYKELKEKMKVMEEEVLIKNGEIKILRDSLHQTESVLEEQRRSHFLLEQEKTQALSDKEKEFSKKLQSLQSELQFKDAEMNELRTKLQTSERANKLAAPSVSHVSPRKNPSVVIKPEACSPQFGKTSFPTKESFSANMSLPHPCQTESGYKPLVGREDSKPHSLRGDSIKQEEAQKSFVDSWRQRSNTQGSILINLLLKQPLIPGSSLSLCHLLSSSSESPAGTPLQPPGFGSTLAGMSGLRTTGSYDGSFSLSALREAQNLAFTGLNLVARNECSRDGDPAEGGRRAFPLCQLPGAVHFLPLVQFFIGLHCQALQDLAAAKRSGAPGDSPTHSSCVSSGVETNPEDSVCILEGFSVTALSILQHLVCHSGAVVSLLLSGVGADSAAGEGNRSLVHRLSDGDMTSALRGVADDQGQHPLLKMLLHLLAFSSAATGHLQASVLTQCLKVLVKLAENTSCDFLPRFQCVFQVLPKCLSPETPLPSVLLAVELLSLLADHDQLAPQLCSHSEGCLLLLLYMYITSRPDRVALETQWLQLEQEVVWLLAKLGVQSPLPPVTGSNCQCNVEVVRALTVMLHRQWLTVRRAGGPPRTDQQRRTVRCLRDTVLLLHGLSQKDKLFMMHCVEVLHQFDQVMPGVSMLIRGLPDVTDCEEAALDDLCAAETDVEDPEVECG
Procedure: The in vitro ATR kinase inhibitory activities were determined by ChemPartner Co., Ltd. (Shanghai, China) using the Mobility Shift Assay. The tested compound was dissolved with DMSO and diluted to 1000/3 × of the final desired highest inhibitor concentration in the reaction. […] The assay wells were incubated at 28 °C for 4 h.

PARP1 = PARP1 (Homo sapiens, UniProt P09874); test: PARP enzymatic inhibition ELISA (PARP1); type: biochemical; conditions: n = 3, mean ± SD
Sequence of PARP1 (P09874 whole entry): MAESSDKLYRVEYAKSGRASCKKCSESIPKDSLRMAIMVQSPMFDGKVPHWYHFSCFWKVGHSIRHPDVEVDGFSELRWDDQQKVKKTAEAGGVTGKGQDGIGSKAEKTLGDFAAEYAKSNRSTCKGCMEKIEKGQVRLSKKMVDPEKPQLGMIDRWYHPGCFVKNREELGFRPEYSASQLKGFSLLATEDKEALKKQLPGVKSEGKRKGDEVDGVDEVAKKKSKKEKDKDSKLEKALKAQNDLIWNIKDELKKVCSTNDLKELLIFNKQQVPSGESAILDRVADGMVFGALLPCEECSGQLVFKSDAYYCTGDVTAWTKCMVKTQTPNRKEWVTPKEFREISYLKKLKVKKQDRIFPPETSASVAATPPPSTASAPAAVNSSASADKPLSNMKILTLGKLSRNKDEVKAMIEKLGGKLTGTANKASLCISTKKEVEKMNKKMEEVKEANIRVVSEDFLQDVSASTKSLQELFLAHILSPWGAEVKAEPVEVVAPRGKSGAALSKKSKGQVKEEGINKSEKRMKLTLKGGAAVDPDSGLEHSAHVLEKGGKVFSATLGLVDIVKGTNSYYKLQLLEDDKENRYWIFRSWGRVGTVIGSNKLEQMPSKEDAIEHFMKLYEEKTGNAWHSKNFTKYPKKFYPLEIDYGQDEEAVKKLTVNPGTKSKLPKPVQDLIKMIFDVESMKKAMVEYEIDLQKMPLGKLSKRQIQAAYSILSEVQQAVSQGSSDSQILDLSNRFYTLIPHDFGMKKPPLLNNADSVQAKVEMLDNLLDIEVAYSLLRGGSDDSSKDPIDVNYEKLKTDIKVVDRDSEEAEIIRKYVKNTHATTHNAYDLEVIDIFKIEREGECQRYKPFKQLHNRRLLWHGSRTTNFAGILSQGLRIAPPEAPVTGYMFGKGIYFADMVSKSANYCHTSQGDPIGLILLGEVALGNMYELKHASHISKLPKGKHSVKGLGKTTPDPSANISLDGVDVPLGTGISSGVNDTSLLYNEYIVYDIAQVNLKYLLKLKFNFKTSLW
Procedure: The PARP activity assay was performed by ChemPartner (Shanghai, China). Each well was precoated with histone (final conc.: 100 ng mL^−1) diluted in PBS buffer (contains 10 mmol L^−1 NaH2PO4 and 150 mmol L^−1 NaCl, pH 7.4) by incubation at 4 °C overnight. […] The reaction was initiated by the addition of 10 µL of PARP (final conc.: 0.007 nM/well) at room temperature for 60 min. Add 20 µL of anti‐Poly/Mono‐ADP Ribose Rabbit mAb. Incubate for 1.5 h at room temperature and wash the plate three times using PBST buffer. […] Incubate for 1 h at room temperature and wash the plate three times using PBST buffer. Add 25 µL Femto‐ECL Substrate A and Femto‐ECL Substrate B (1:1) mix. Immediately read chemiluminescence on Envision (Revvity, USA).

MDA‐MB‐231 cells [3] = test: Cell apoptosis assay, Annexin V‐FITC/PI; type: cell-based; conditions: MDA‐MB‐231, 72 h
Procedure: (§5) The cell apoptosis analysis was performed with cells seeded in 6‐well plates in growth media. The cells were allowed to attach overnight (8 h). The cultures were treated with different tested drugs for 72 h and evaluated using an Annexin V Flow Kit (BioLegend#B367750) according to the manufacturer's instructions. The data were analyzed by FlowJo software (Tree Star, Inc., Ashland, OR).

MDA‐MB‐468 cells [4] = test: Cell apoptosis assay, Annexin V‐FITC/PI; type: cell-based; conditions: MDA‐MB‐468, 72 h
Procedure: as §5

[5] = Homo sapiens, MDA-MB-436, 120 h

| IC50 (ATR) [µM] | IC50 (PARP1) [µM] | Compound | IC50 (MDA‐MB‐231) [µM] | IC50 (MDA‐MB‐468) [µM] | IC50 (MDA‐MB‐436) [µM] | IC50 (MDA‐MB‐436; [5]) [µM] | IC50 (MCF‐7) [µM] | IC50 (MDA‐MB‐453) [µM] | inhibition at 30 µM (MCF‐10A) [%] | effect on cell cycle distribution (MDA‐MB‐231 cells [1]) | effect on cell cycle distribution (MDA‐MB‐468 cells [2]) | ability to induce apoptosis vs combination of AZD6738 and Olaparib (MDA‐MB‐231 cells [3]) | ability to induce apoptosis vs combination of AZD6738 and Olaparib (MDA‐MB‐468 cells [4]) |
| --- | --- | --- | --- | --- | --- | --- | --- | --- | --- | --- | --- | --- | --- |
|  |  | O=C(c1cc(Cc2n[nH]c(=O)c3ccccc23)ccc1F)N1CCN(C(=O)C2CC2)CC1 [1 (Olaparib), Olaparib, reference compound] | 21.9 ± 2.36 | 10.5 ± 0.59 | 4.53 ± 0.21 | 4.5 | > 30 | > 30 | 14.5 | did not significantly change the cell cycle distribution | did not significantly change the cell cycle distribution |  |  |
| 0.043 ± 0.007 | 0.00056 ± 0.00021 | C[C@@H]1COCCN1c1cc(C2(NC(=O)c3ccc(C(=O)N4CCN(C(=O)c5cc(Cc6n[nH]c(=O)c7ccccc67)ccc5F)CC4)cc3)CC2)nc(-c2ccnc3[nH]ccc23)n1 [Compound A7, (R) ‐4‐(4‐(2‐fluoro‐5‐((4‐oxo‐3,4‐dihydrophthalazin‐1‐yl)methyl)benzoyl)piperazine‐1‐carbonyl)‐N‐(1‐(6‐(3‐methylmorpholino)‐2‐(1H‐pyrrolo[2,3‐b]pyridin‐4‐yl)pyrimidin‐4‐yl)cyclopropyl)benzamide] | 13.4 ± 3.44 | 0.23 ± 0.07 |  | 0.015 ± 0.001 |  |  |  | did not demonstrate any significant effects on the cell cycle | did not demonstrate any significant effects on the cell cycle | does not show a significant enhancement | does not show a significant enhancement |
